Assay results reported in patent US10104891B2 (priority 2014, dated 2018).

Key:
Type in all cases: in vivo
[1] = system: Pseudoperonospora cubensis; experiment: Test 2: control effect against cucumber downy mildew; conditions: control value vs untreated section; for pest or weed control at 4 µg/mL: Pseudoperonospora cubensis, 120 h
Description: (§1) A 10% wettable powder created according to the Pharmaceutical Formulation Example 1 was diluted with a Tween20 solution prepared to a concentration of 1/5000, then the compound of formula [1] was prepared to a concentration of 4 ppm. Further, the compound of formula [1] in Test 4 was adjusted to a concentration of 1,000 ppm.
<Test 2 Test of Control Effect Against Cucumber Downy Mildew>
(§2) Test suspension was applied to cucumber at the 2 leaf stage (species: Sagami hanjiro) in an amount of 20 ml per seedling. One day after application, zoospore suspension of Pseudoperonospora cubensis adjusted to a concentration of 1.0×10^4 units/ml was misted/inoculated, and the seedlings were incubated in a moist chamber adjusted to 22° C. for 16 hr. Then, the onset of the disease was induced in the chamber, and the lesion area rate on the leaves 5 days after inoculation was investigated to compute the control value using the formula below. control value={1−onset area rate of the leaves that were applied the test agent/onset area rate of untreated leaves}×100 Computational formula of the control value: […]

Plasmopara viticola = experiment: Test 3: control effect against grape downy mildew; conditions: control value vs untreated section; for pest or weed control at 4 µg/mL: Plasmopara viticola, 120 h
Description: as §1
<Test 3 Test of Control Effect Against Grape Downy Mildew>
as §2, with “grape seedling” for “cucumber at the 2 leaf stage”, “Neomuscat)” for “Sagami hanjiro)”, “Plasmopara viticola” for “Pseudoperonospora cubensis”

Phytophthora infestans = experiment: whole plant or invertebrate; conditions: for control value (Test 1): tomato late blight, control value vs untreated section; for pest or weed control at 4 µg/mL: Phytophthora infestans, in Solanum lycopersicum, 96 h, read-out: control value (Test 1)

## Cc1ccc(OS(C)(=O)=O)c2c1COC(c1csc(C3CCN(C(=O)Cn4nc(C(F)(F)F)cc4C)CC3)n1)OC2 (stereo not drawn) [Compound 1-19]
[1]
  control value (Test 2): 100
Plasmopara viticola
  control value (Test 3): 100
Phytophthora infestans
  control value (Test 1): 100

## Cc1cc(C(F)(F)F)nn1CC(=O)N1CCN(c2nc(C3OCc4cccc(OS(C)(=O)=O)c4CO3)cs2)CC1 (stereo not drawn) [Compound 1-127]
[1]
  control value (Test 2): 100
Plasmopara viticola
  control value (Test 3): 100
Phytophthora infestans
  control value (Test 1): 100

## Cc1cc(C(F)(F)F)nn1CC(=O)N1CCC(c2nc(C3OCc4cccc(C=NN(C)C)c4CO3)cs2)CC1 (stereo not drawn) [Compound 1-71]
[1]
  control value (Test 2): 100
Plasmopara viticola
  control value (Test 3): 100
Phytophthora infestans
  control value (Test 1): 100

## CS(=O)(=O)Oc1ccc(Cl)c2c1COC(c1csc(C3CCN(C(=O)Cn4nc(C(F)F)cc4C(F)F)CC3)n1)OC2 (stereo not drawn) [Compound 1-116]
[1]
  control value (Test 2): 100
Plasmopara viticola
  control value (Test 3): 100
Phytophthora infestans
  control value (Test 1): 100

## COc1ccc(C)c2c1COC(c1csc(C3CCN(C(=O)Cn4nc(C(F)(F)F)cc4C(F)(F)F)CC3)n1)OC2 (stereo not drawn) [Compound 1-134]
[1]
  control value (Test 2): 100
Plasmopara viticola
  control value (Test 3): 100
Phytophthora infestans
  control value (Test 1): 100

## Cc1cc(C)n(CC(=O)N2CCC(c3nc(C4OCc5cccc(OS(C)(=O)=O)c5CO4)cs3)CC2)n1 (stereo not drawn) [Compound 1-105]
[1]
  control value (Test 2): 100
Plasmopara viticola
  control value (Test 3): 100
Phytophthora infestans
  control value (Test 1): 100

## CS(=O)(=O)Oc1cccc2c1COC(c1csc(N3CCN(C(=O)Cn4nc(C(F)F)cc4C(F)F)CC3)n1)OC2 (stereo not drawn) [Compound 1-151]
[1]
  control value (Test 2): 100
Plasmopara viticola
  control value (Test 3): 100
Phytophthora infestans
  control value (Test 1): 100

## O=C(Cc1cc(Cl)ccc1Cl)N1CCC(c2nc(C3OCc4ccc([N+](=O)[O-])cc4CO3)cs2)CC1 (stereo not drawn) [Compound 2-21]
[1]
  control value (Test 2): 100
Plasmopara viticola
  control value (Test 3): 100
Phytophthora infestans
  control value (Test 1): 50

## Cc1ccc(C)c(CC(=O)N2CCC(c3nc(C4OCc5c(F)c(F)c(F)c(F)c5CO4)cs3)CC2)c1 [Compound 2-27]
[1]
  control value (Test 2): 100
Plasmopara viticola
  control value (Test 3): 100
Phytophthora infestans
  control value (Test 1): 100

## CCCCS(=O)(=O)Oc1cccc2c1COC(c1csc(C3CCN(C(=O)Cn4nc(C(F)(F)F)cc4C(F)(F)F)CC3)n1)OC2 (stereo not drawn) [Compound 1-68]
[1]
  control value (Test 2): 100
Plasmopara viticola
  control value (Test 3): 100
Phytophthora infestans
  control value (Test 1): 100

## CCCCCCCCS(=O)(=O)Oc1cccc2c1COC(c1csc(C3CCN(C(=O)Cn4nc(C(F)F)cc4C(F)F)CC3)n1)OC2 (stereo not drawn) [Compound 1-59]
[1]
  control value (Test 2): 100
Plasmopara viticola
  control value (Test 3): 100
Phytophthora infestans
  control value (Test 1): 100

## Cc1cc(C(F)(F)F)nn1C(C)C(=O)N1CCC(c2nc(C3OCc4c(F)ccc(OS(C)(=O)=O)c4CO3)cs2)CC1 (stereo not drawn) [Compound 1-156]
[1]
  control value (Test 2): 100
Plasmopara viticola
  control value (Test 3): 100
Phytophthora infestans
  control value (Test 1): 100

## Cc1ccc(C)c(CC(=O)N2CCC(c3nc(C4OCc5c(OS(C)(=O)=O)cc(C)c(C)c5CO4)cs3)CC2)c1 (stereo not drawn) [Compound 2-31, 4-[4-(6,7-dimethyl-9-methylsulfonyloxy-1,5-dihydro-3H-2,4-benzodioxepin-3-yl)-2-thiazolyl]-1-[2-(2,5-dimethylphenyl)acetyl]piperidine]
[1]
  pest or weed control at 4 µg/mL: 100%
Plasmopara viticola
  pest or weed control at 4 µg/mL: 100%
Phytophthora infestans
  pest or weed control at 4 µg/mL: 0%

## COc1cccc2c1COC(c1csc(C3CCN(C(=O)Cc4cc(Cl)ccc4Cl)CC3)n1)OC2 (stereo not drawn) [Compound 2-51]
[1]
  control value (Test 2): 100
Plasmopara viticola
  control value (Test 3): 100
Phytophthora infestans
  control value (Test 1): 100

## Cc1cc(C(F)(F)F)nn1CC(=O)N1CCC(c2nc(C3OCc4ccccc4C(C)O3)cs2)CC1 (stereo not drawn) [Compound 1-18]
[1]
  control value (Test 2): 100
Plasmopara viticola
  control value (Test 3): 100
Phytophthora infestans
  control value (Test 1): 100

## CS(=O)(=O)Oc1ccc(Br)c2c1COC(c1csc(C3CCN(C(=O)Cc4cc(Cl)ccc4Cl)CC3)n1)OC2 (stereo not drawn) [Compound 2-35]
[1]
  control value (Test 2): 100
Plasmopara viticola
  control value (Test 3): 100
Phytophthora infestans
  control value (Test 1): 100

## O=C(Cn1nc(C(F)(F)F)cc1C(F)(F)F)N1CCC(c2nc(C3OCc4cccc(F)c4CO3)cs2)CC1 (stereo not drawn) [Compound 1-41]
[1]
  control value (Test 2): 100
Plasmopara viticola
  control value (Test 3): 100
Phytophthora infestans
  control value (Test 1): 100

## O=C(Cn1nc(C(F)(F)F)cc1C(F)(F)F)N1CCC(c2nc(C3OCc4ccccc4CO3)cs2)CC1 [Compound 1-85]
[1]
  control value (Test 2): 100
Plasmopara viticola
  control value (Test 3): 100
Phytophthora infestans
  control value (Test 1): 100

## CS(=O)(=O)Oc1ccc(OS(C)(=O)=O)c2c1COC(c1csc(C3CCN(C(=O)Cn4nc(C(F)(F)F)cc4C(F)(F)F)CC3)n1)OC2 [Compound 1-147, 4-[4-[6,9-bis(methylsulfonyloxy)-1,5-dihydro-3H-2,4-benzodioxepin-3-yl]-2-thiazolyl]-1-[2-[3,5-bis(trifluoromethyl)-1H-pyrazole-1-yl]acetyl]piperidine]
[1]
  pest or weed control at 4 µg/mL: 90%
Plasmopara viticola
  pest or weed control at 4 µg/mL: 70%
Phytophthora infestans
  pest or weed control at 4 µg/mL: 90%

## CCCCCCCCS(=O)(=O)Oc1cccc2c1COC(c1csc(C3CCN(C(=O)Cn4nc(C(F)(F)F)cc4C)CC3)n1)OC2 (stereo not drawn) [Compound 1-25]
[1]
  control value (Test 2): 100
Plasmopara viticola
  control value (Test 3): 100
Phytophthora infestans
  control value (Test 1): 100

## Cc1cc(OS(C)(=O)=O)c2c(c1C)COC(c1csc(C3CCN(C(=O)Cc4cc(Cl)ccc4Cl)CC3)n1)OC2 (stereo not drawn) [Compound 2-32]
[1]
  control value (Test 2): 100
Plasmopara viticola
  control value (Test 3): 100
Phytophthora infestans
  control value (Test 1): 100

## COc1cccc2c1COC(c1csc(C3CCN(C(=O)Cn4nc(C(F)(F)F)cc4C)CC3)n1)OC2 (stereo not drawn) [Compound 1-135]
[1]
  control value (Test 2): 100
Plasmopara viticola
  control value (Test 3): 100
Phytophthora infestans
  control value (Test 1): 100

## Cc1ccc(C)c(CC(=O)N2CCC(c3nc(C4OCc5c(F)ccc(OS(C)(=O)=O)c5CO4)cs3)CC2)c1 (stereo not drawn) [Compound 2-8]
[1]
  control value (Test 2): 100
Plasmopara viticola
  control value (Test 3): 100
Phytophthora infestans
  control value (Test 1): 100

## CCCCS(=O)(=O)Oc1cccc2c1COC(c1csc(C3CCN(C(=O)Cc4cc(C)ccc4C)CC3)n1)OC2 (stereo not drawn) [Compound 2-12, 4-[4-(6-butylsulfonyloxy-1,5-dihydro-3H-2,4-benzodioxepin-3-yl)-2-thiazolyl]-1-[2-(2,5-dimethylphenyl)acetyl]piperidine]
[1]
  pest or weed control at 4 µg/mL: 90%
Plasmopara viticola
  pest or weed control at 4 µg/mL: 80%
Phytophthora infestans
  pest or weed control at 4 µg/mL: 80%

## Cc1ccc(C)c(CC(=O)N2CCC(c3nc(C4OCc5cccc(Br)c5CO4)cs3)CC2)c1 (stereo not drawn) [Compound 2-17]
[1]
  control value (Test 2): 100
Plasmopara viticola
  control value (Test 3): 100
Phytophthora infestans
  control value (Test 1): 90

## Cc1ccc(C)c(CC(=O)N2CCN(c3nc(C4OCc5cccc(OS(C)(=O)=O)c5CO4)cs3)CC2)c1 (stereo not drawn) [Compound 2-54]
[1]
  control value (Test 2): 90
Plasmopara viticola
  control value (Test 3): 100
Phytophthora infestans
  control value (Test 1): 90

## O=C(Cn1nc(C(F)(F)F)cc1C(F)(F)F)N1CCC(c2nc(C3OCc4cccc([N+](=O)[O-])c4CO3)cs2)CC1 (stereo not drawn) [Compound 1-114]
[1]
  control value (Test 2): 100
Plasmopara viticola
  control value (Test 3): 100
Phytophthora infestans
  control value (Test 1): 100

## CC(C)=NOCC(=O)N1CCC(c2nc(C3OCc4cccc(OS(C)(=O)=O)c4CO3)cs2)CC1 (stereo not drawn) [Compound 3-1, 4-[4-(6-methylsulfonyloxy-1,5-dihydro-3H-2,4-benzodioxepin-3-yl)-2-thiazolyl]-1-[2-[(propane-2-ylideneamino)oxy]acetyl]piperidine]
[1]
  pest or weed control at 4 µg/mL: 100%
Plasmopara viticola
  pest or weed control at 4 µg/mL: 100%
Phytophthora infestans
  pest or weed control at 4 µg/mL: 100%

## COc1ccc(Cl)c2c1COC(c1csc(C3CCN(C(=O)Cn4nc(C(F)(F)F)cc4C(F)(F)F)CC3)n1)OC2 (stereo not drawn) [Compound 1-110]
[1]
  control value (Test 2): 100
Plasmopara viticola
  control value (Test 3): 100
Phytophthora infestans
  control value (Test 1): 100

## CON=Cc1cccc2c1COC(c1csc(C3CCN(C(=O)Cn4nc(C(F)(F)F)cc4C)CC3)n1)OC2 (stereo not drawn) [Compound 1-63]
[1]
  control value (Test 2): 100
Plasmopara viticola
  control value (Test 3): 100
Phytophthora infestans
  control value (Test 1): 100

## COc1ccc([N+](=O)[O-])c2c1COC(c1csc(C3CCN(C(=O)Cn4nc(C(F)(F)F)cc4C(F)(F)F)CC3)n1)OC2 (stereo not drawn) [Compound 1-83]
[1]
  control value (Test 2): 100
Plasmopara viticola
  control value (Test 3): 100
Phytophthora infestans
  control value (Test 1): 100

## COc1ccc(OC(F)(F)F)c2c1COC(c1csc(C3CCN(C(=O)Cn4nc(C(F)(F)F)cc4C)CC3)n1)OC2 (stereo not drawn) [Compound 1-86]
[1]
  control value (Test 2): 100
Plasmopara viticola
  control value (Test 3): 100
Phytophthora infestans
  control value (Test 1): 100

## O=C(Cn1nc(C(F)F)cc1C(F)F)N1CCC(c2nc(C3OCc4cccc(OC(F)F)c4CO3)cs2)CC1 (stereo not drawn) [Compound 1-136]
[1]
  control value (Test 2): 100
Plasmopara viticola
  control value (Test 3): 100
Phytophthora infestans
  control value (Test 1): 100

## Cc1cc(C(F)(F)F)nn1CC(=O)N1CCC(c2nc(C3OCc4cccc(OS(=O)(=O)c5ccccc5)c4CO3)cs2)CC1 (stereo not drawn) [Compound 1-48]
[1]
  control value (Test 2): 100
Plasmopara viticola
  control value (Test 3): 100
Phytophthora infestans
  control value (Test 1): 100
